# Test results from patent US8846570B2, “Herbicidal compositions comprising 4-amino-3-chloro-5-fluoro-6-(4-chloro-2-fluoro-3-methoxyphenyl)pyridine-2-carboxylic acid or a derivative thereof and microtubule inhibiting herbicides” (Dow AgroSciences LLC, priority 2012, dated 2014).
# What was measured:
# [1] = test system: Leptochloa chinensis (L.) Nees (LEFCH); assay: Postemergence foliar-applied, direct seeded rice, greenhouse: visual weed control; format: in vivo; details: 19 DAA
# Excerpt: Seeds or nutlets of the desired test plant species were planted in a soil matrix prepared by mixing a loam or sandy loam soil (e.g., 28.6 percent silt, 18.8 percent clay, and 52.6 percent sand, with a pH of about 5.8 and an organic matter content of about 1.8 percent) and calcareous grit in an 80 to 20 ratio. The soil matrix was contained in plastic pots with a volume of 1 quart and a surface area of 83.6 cm^2. When required to ensure good germination and healthy plants, a fungicide treatment and/or other chemical or physical treatment was applied. The plants were grown for 8-22 days in a greenhouse with an approximate 14 h photoperiod which was maintained at about 29° C. during the day and 26° C. during the night. Nutrients (Peters Excel® 15-5-15 5-Ca 2-Mg and iron chelate) were applied in the irrigation solution as needed and water was added on a regular basis. Supplemental lighting was provided with overhead metal halide 1000-Watt lamps as necessary. The plants were employed for testing when they reached the first through fourth true leaf stage.
# Treatments consisted of the acid or esters of 4-amino-3-chloro-5-fluoro-6-(4-chloro-2-fluoro-3-methoxy-phenyl)pyridine-2-carboxylic acid (Compound A), each formulated as an SC (suspension concentrate), and various herbicidal components alone and in combination. Forms of compound A were applied on an acid equivalent basis.
# Treatment requirements were calculated based upon the rates being tested, the concentration of active ingredient or acid equivalent in the formulation, and a 12 mL application volume at a rate of 187 L/ha.
# For treatments comprised of formulated compounds, measured amounts of compounds were placed individually in 25 mL glass vials and diluted in a volume of 1.25% (v/v) Agri-Dex® crop oil concentrated to obtain 12× stock solutions. […] Application solutions were prepared by adding an appropriate amount of each stock solution (e.g., 1 mL) and diluted to the appropriate final concentrations with the addition of 10 mL of an aqueous mixture of 1.25% (v/v) crop oil concentrate so that the final spray solutions contained 1.25+/−0.05% (v/v) crop oil concentrate.
# As required, additional water and/or 97:3 v/v acetone/DMSO was added to individual application solutions so that the final acetone and DMSO concentrations of the application solutions being compared were 8.1% and 0.25%, respectively.
# All stock solutions and applications solutions were visually inspected for compound compatibility prior to application. Spray solutions were applied to the plant material with an overhead Mandel track sprayer equipped with a 8002E nozzles calibrated to deliver 187 L/ha over an application area of 0.503 m^2 at a spray height of 18 to 20 inches (46 to 50 cm) above average plant canopy height. Control plants were sprayed in the same manner with the solvent blank.
# (§1) The treated plants and control plants were placed in a greenhouse as described above and watered by sub-irrigation to prevent wash-off of the test compounds. After approximately 3 weeks, the condition of the test plants as compared with that of the untreated plants was determined visually and scored on a scale of 0 to 100 percent where 0 corresponds to no injury or growth inhibition and 100 corresponds to complete kill.
# (§2) Colby's equation was used to determine the herbicidal effects expected from the mixtures (Colby, S. R. 1967. Calculation of the synergistic and antagonistic response of herbicide combinations. Weeds 15:20-22.).
# (§3) The following equation was used to calculate the expected activity of mixtures containing two active ingredients, A and B: Expected=A+B−(A×B/100)
# [2] = test system: Amaranthus retroflexus L. (AMARE); assay: Postemergence foliar-applied, cereal crops, greenhouse: visual weed control; format: in vivo; details: 21 DAA
# Method: Seeds of the desired test plant species were planted in Sun Gro MetroMix® 306 planting mixture, which typically has a pH of 6.0 to 6.8 and an organic matter content of about 30 percent, in plastic pots with a surface area of 103.2 square centimeters (cm^2). When required to ensure good germination and healthy plants, a fungicide treatment and/or other chemical or physical treatment was applied. The plants were grown for 7-36 days in a greenhouse with an approximate 14 hour photoperiod which was maintained at about 18° C. during the day and about 17° C. during the night. Nutrients and water were added on a regular basis and supplemental lighting was provided with overhead metal halide 1000-Watt lamps as necessary. The plants were employed for testing when they reached the second or third true leaf stage.
# Treatments consisted of the benzyl ester of 4-amino-3-chloro-5-fluoro-6-(4-chloro-2-fluoro-3-methoxy-phenyl)pyridine-2-carboxylic acid (Compound A), formulated as an SC, a second cereal herbicide alone and then both in combination.
# Other herbicidal components were applied on an active ingredient basis and included microtubule-inhibiting herbicides.
# Measured aliquots of benzyl ester of 4-amino-3-chloro-5-fluoro-6-(4-chloro-2-fluoro-3-methoxy-phenyl)pyridine-2-carboxylic acid (Compound A) were placed in 25 milliliter (mL) glass vials and diluted in a volume of 1.25% (v/v) Agri-Dex® crop oil concentrate to obtain stock solutions. Compound requirements are based upon a 12 mL application volume at a rate of 187 liters per hectare (L/ha). Spray solutions of the second cereal herbicide and experimental compound mixtures were prepared by adding the stock solutions to the appropriate amount of dilution solution to form 12 mL spray solution with active ingredients in two- and three-way combinations. Formulated compounds were applied to the plant material with an overhead Mandel track sprayer equipped with an 8002E nozzle calibrated to deliver 187 L/ha over an application area of 0.503 square meters (m^2) at a spray height of 18 inches (46 cm) above average plant canopy. Control plants were sprayed in the same manner with the solvent blank.
# as §1, with “20-22 days,” for “approximately 3 weeks,”, “control” for “untreated”, “injury” for “injury or growth inhibition”
# as §2, §3
SMILES,Visual Weed Control (%) Obs ([1]; 4.38 g ae/ha),Visual Weed Control (%) Obs ([1]; 8.75 g ae/ha),Visual Weed Control (%) Obs ([1]; 17.5 g ae/ha),Visual Weed Control (%) Obs ([2]; 2.5 g ai/ha),Visual Weed Control (%) Obs ([2]; 5 g ai/ha),Visual Weed Control (%) Obs ([1]; 140 g ai/ha),Visual Weed Control (%) Obs ([1]; 280 g ai/ha),Visual Weed Control (%) Obs ([1]; 560 g ai/ha),Visual Weed Control (%) Obs ([2]; 150 g ai/ha),Visual Weed Control (%) Obs ([2]; 300 g ai/ha)
"COc1c(Cl)ccc(-c2nc(C(=O)OCc3ccccc3)c(Cl)c(N)c2F)c1F [Compound A Benzyl Ester, benzyl ester of 4-amino-3-chloro-5-fluoro-6-(4-chloro-2-fluoro-3-methoxy-phenyl)pyridine-2-carboxylic acid]",0%,25%,30%,20%,38%,–,–,–,–,–
"CCC(CC)Nc1c([N+](=O)[O-])cc(C)c(C)c1[N+](=O)[O-] [Pendimethalin, N-(1-ethylpropyl)-3,4-dimethyl-2,6-dinitrobenzenamine, reference compound]",–,–,–,–,–,0%,20%,80%,3%,5%
